Earlier results, collected in patent US9023374B2, “Sanitizing compositions” (priority 2009, dated 2015).
Where two headings read alike, the source gives them in different places.

Tests used:
[1] = tested on: feline calicivirus
[2] = tested on: feline calicivirus; conditions: room temperature

CCO [ethanol]
inactivation of feline calicivirus [1]: failed to inactivate the virus

CCO [70% w/w ethanol, ethanol]
log10 reduction of feline calicivirus ([2]; after 8 minutes): < 2 log10
log10 reduction of feline calicivirus ([2]; after 30 minutes): 3 log10
